Key:
[1] = Anionic compatibility test (titration of 10% sodium lauryl sulfate with 10% solids quat solution); assay type: physicochemical; conditions: 10% solids solution added to 100 ml of 10% sodium lauryl sulfate; for number of ml of solution A at the first point haze or precipitate was noted (end point): test stopped at 100 ml (fully compatible)
Protocol: The compounds evaluated were diluted to 10% solids with DI water before evaluation.
A solution of 10% b weight sodium lauryl sulfate was prepared. The sodium lauryl sulfate was obtained from Colonial Chemical in South Pittsburgh Tennessee.
Anionic Compatibility Test
100 ml of solution B was added to a 400 ml beaker. Solution A was slowly added until either a precipitate or haziness was noted. The number of ml of solution was recorded at the first point the haze of precipitate was noted. That point was noted as the end point. The higher the volume used to the end point the better the compatibility. The test is stopped at 100 ml at which point the product is considered fully compatible.

hair = test: Half head conditioning study in commercial baby shampoo; assay type: in vivo; design: key: 1: no conditioning; 2: minimal conditioning; 3: measurable conditioning; 4: good conditioning; 5: excellent conditioning; conditions: 0.5% active by weight in commercial baby shampoo, 10 people, average rounded to nearest whole number
Protocol: The baby shampoo compounds were evaluated on 10 people with half head studies. The values reported were the average rounded to the nearest whole number. […] The scale used to evaluate was: [table]

Compound: CCCCCCCCCCCCCCCCCC[N+](C)(C)Cc1ccccc1.[Cl-] [Stearyl dimethyl denzalkonium chloride, reference compound]
- anionic compatibility rating [1]: Very Incompatible
- number of ml of solution A at the first point haze or precipitate was noted (end point) [1]: 1.0 mL

Compound: CCCCCCCCCCCCCCCCCC(=O)NCCCN(C)C.Cl [Stearylamidopropyl dimethyl ammonium chloride, reference compound]
- Conditioning Value (hair): 1
- anionic compatibility rating [1]: mildly compatible
- number of ml of solution A at the first point haze or precipitate was noted (end point) [1]: 20.0 mL

Compound: Cetyl trimethyl benzyl ammonium chloride [reference compound]
- anionic compatibility rating [1]: Very Incompatible
- number of ml of solution A at the first point haze or precipitate was noted (end point) [1]: 0.5 mL

Compound: Dimer benzyl quat [Example 5]
- Conditioning Value (hair): 5
- anionic compatibility rating [1]: Very
- number of ml of solution A at the first point haze or precipitate was noted (end point) [1]: 88.2 mL

Compound: Dimer glyceryl quat [Example 3]
- Conditioning Value (hair): 4
- anionic compatibility rating [1]: Fully
- number of ml of solution A at the first point haze or precipitate was noted (end point) [1]: 100.0 mL

Compound: Dimer tri-methyl quat [Example 7]
- Conditioning Value (hair): 4
- anionic compatibility rating [1]: Compatible
- number of ml of solution A at the first point haze or precipitate was noted (end point) [1]: 58.9 mL

Compound: Hydrogenated dimer benzyl quat [Example 6]
- Conditioning Value (hair): 5

Compound: Hydrogenated dimer glyceryl quat [Example 4]
- Conditioning Value (hair): 4
- anionic compatibility rating [1]: Fully
- number of ml of solution A at the first point haze or precipitate was noted (end point) [1]: 100.0 mL

Compound: Hydrogenated dimer tri-methyl [Example 8]
- Conditioning Value (hair): 4
- anionic compatibility rating [1]: Compatible
- number of ml of solution A at the first point haze or precipitate was noted (end point) [1]: 59.6 mL
